The record followed here is US20120270917A1 (The Trustees of the University of Pennsylvania, priority 2009, published 2012).

Structures can show the parent of a compound that is named as a salt. Where two headings read alike, the source gives them in different places.

The target in this test is T1, AM2 (Influenza A virus, UniProt P0DOF5).
T1 construct: expressed in transfected cells
Description: cell-based. The conditions noted are these: for AM2 % inhibition at μM: concentration not given; for AM2 % inhibition at μM / IC50: Table 2.

Setting [1] is: Oocytes, 100 μM, 2 min, mean ± SE, read-out: AM2 wt % of inhibition by 100 μM 2 min.
Setting [2] is: read-out: AM2 % inhibition at 100 uM, 100 uM, Table 1.

T1 sequence (P0DOF5 whole entry): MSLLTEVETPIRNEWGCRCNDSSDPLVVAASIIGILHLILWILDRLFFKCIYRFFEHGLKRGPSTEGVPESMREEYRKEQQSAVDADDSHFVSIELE

One may read the inhibition as how much of the control response was suppressed. Take `NC12CC3CC(CC(C3)C1)C2` [Amantadine, reference compound]: the inhibition at 100 µM under setting [1] was 90.8 ± 2.5%.
For the compound `NC12CC3CC(C1)CC(O)(C3)C2` [Compound 38], the inhibition at 100 µM under setting [2] turned out to be 87%.
For `N=C(N)NC12CC3CC(CC(C3)C1)C2` [Compound 39, 1-(adamantyl)guanidine], the inhibition at 100 µM under setting [2] came to 97%.
As to `CC(NC(=N)N)C12CC3CC(CC(C3)C1)C2` (stereo not drawn) [Compound 40], the inhibition at 100 µM under setting [2] is 94%.
As to `Cl.Cl.N=C(N)NC(=N)NC12CC3CC(CC(C3)C1)C2` [Compound 41], under setting [2], the inhibition at 100 µM was found to be 70%.
For the compound `NOC12CC3CC(CC(C3)C1)C2` [Compound 42, O-adamantylhydroxylamine], under setting [2], the inhibition at 100 µM was 87%.
On the same count and under the same terms, in the case of `Cc1nc[nH]c1/C=N/OC12CC3CC(CC(C3)C1)C2` [Compound 43, 5-Methyl-3H-imidazole-4-carbaldehyde O-adamantan-1-yl-oxime] it was 81%; in that of `N=C(N)C12CC3CC(CC(C3)C1)C2` [Compound 44, Adamantane amidine hydrochloride], 70%.
As for `NC1CSC2(SC1)C1CC3CC(C1)CC2C3` (stereo not drawn) [Compound 45], the inhibition at 100 µM under setting [2] came out at 64%.
Turning to `N=C(NO)C12CC3CC(CC(C3)C1)C2` [Compound 46, N-hydroxyadamantanecarboximidamide], the inhibition at 100 µM under setting [2] amounted to 72.3%.
On the same count and under the same terms, the same measure for `C1NC2CC3CC1CC(C3)C2.Cl` [Compound 47, 4-Azatricyclo[4.3.1.1^3,8]undecan hydrochloride]: 83.8%.
For the compound `NC(=O)C12CC3CC(CC(C3)C1)C2` [Compound 48], under setting [2], the inhibition at 100 µM came to 74.9%.
On to `O=CC12CC3CC(CC(C3)C1)C2` [Compound 49, 1-adamantanecarboaldehyde], for which the inhibition at 100 µM under setting [2] worked out at 65.1%.
As for `O=C1C2CC3CC(C2)CC1C3` [Compound 50], the inhibition at 100 µM under setting [2] came out at 69.6%.
In the case of `O=C1C2CC3CC1CC(C2)C3=O` [Compound 52, 2,6-diadamantone], the inhibition at 100 µM under setting [2] was found to be 59.1%.
Same read-out and setting: in the case of `OC1(C(F)(F)F)C2CC3CC(C2)CC1C3` (stereo not drawn) [Compound 53, 2-trifluoromethyl-2-adamantol] it was 82.9%.
For the compound `O=[N+]([O-])C12CC3CC(CC(C3)C1)C2` [Compound 54, 1-nitroadamantane], under setting [2], the inhibition at 100 µM amounted to 87.2%.
Consider `Cl.NC1C[C@@H]2C[C@@H]3CC1[C@H](C2)C3` (stereo partly drawn) [Compound S1, (2S,3aS,5R)-octahydro-1H-2,5-methanoinden-7-aminium chloride], for which the “AM2 % inhibition at μM” value stood at 94.2%.
Regarding `Cl.NC12CC3CCC(CC(C3)C1)C2` [Compound S2, tricyclo[4.3.1.13,8]undecan-1-aminium chloride], the “AM2 % inhibition at μM” value is reported as 81.3%.
Regarding `O=[N+]([O-])C1C2CC3CC(C2)CC1C3` (stereo not drawn) [Compound S3], the “AM2 % inhibition at μM” value was 85.6%.
For `CC1(O)C2CC3CC(C2)CC1C3` (stereo not drawn) [Compound S4], the “AM2 % inhibition at μM” value is 85.8%.
In the case of `CC1(N)C2CC3CC(C2)CC1C3` (stereo not drawn) [Compound S5], the “AM2 % inhibition at μM” value stood at 65.0%.
A word on the IC50: it is the point on the concentration scale where inhibition reaches its midpoint. For the compound `NC1(C(F)(F)F)C2CC3CC(C2)CC1C3` (stereo not drawn) [Compound S6], the IC50 is 10.1 µM and the “AM2 % inhibition at μM” value turned out to be 86.3%.
Regarding `NS(=O)(=O)NC1C2CC3CC(C2)CC1C3` (stereo not drawn) [Compound S7], the “AM2 % inhibition at μM” value turned out to be 81.6%.
In the case of `OC1(C(F)(F)F)C2CC3CC(C2)CC1C3` (stereo not drawn) [Compound S8], it took 13.8 µM to reach half-maximal inhibition (IC50) and the “AM2 % inhibition at μM” value came out at 82.9%.
`O=[N+]([O-])C12CC3CC(CC(C3)C1)C2` [Compound S9]: the “AM2 % inhibition at μM” value was 87.2%.
As to `Cl.NC12CCC3CC(CC(C3)C1)C2` [Compound S12], the “AM2 % inhibition at μM” value came to 92%.
With `O=C1C2CC3CC(C2)CC1C3` [Compound S13], the IC50 stood at 28.8 µM and the “AM2 % inhibition at μM” value is listed as 69.6%.
For `Cl.NC1CCC2(CC1)C1CC3CC(C1)CC2C3` (stereo not drawn) [Compound S15, (1r, 3r,5r,7r)-spiro[adamantane-2,1′-cyclohexan]-4′-aminium chloride], the inhibition at 100 µM under setting [1] is 89.1 ± 1.3%.
Still for that read-out and setting: in the case of `CC(N)C12CC3CC(CC(C3)C1)C2` (stereo not drawn) [Rimantadine, reference compound] it was 91.2 ± 0.9%.
